Results on two compounds are retold here after patent publication US20030143731A1, “Use of heterologous transcription factors in gene therapy” (ARIAD Gene Therapeutics, Inc., priority 1995, published 2003).

The subject of data set [1] is SEAP target gene in stably transfected HT1080 cells. As to the kind of experiment: Rapamycin-dependent SEAP production in stably transfected cell clone. It counts as cell-based, human. Particulars: stable clone, 100 nM rapamycin, SEAP assay length increased about 50-fold. The text has this:
We generated stable cell lines by sequential transfection of a SEAP target gene and expression vectors for ZFHD1-3FKBP and 1FRB-p65, respectively. […] From this pool, we characterized several individual clones, many of which produced high levels of SEAP in response to rapamycin. […] In an attempt to rigorously quantitate background SEAP production and induction ratio in this clone, we performed a second set of assays in which the length of the SEAP assay was increased by a factor of approximately 50 to detect any SEAP activity in untreated cells. Under these conditions, mock transfected cells produced 47 arbitrary fluorescence units, while the transfected clone produced 54 units in the absence of rapamycin and over 90,000 units at 100 nM rapamycin. […]
To simplify the task of stable transfection, we used a bicistronic expression vector that directs the production of both ZFHD1-3FKBP and 1FRB-p65 through the use of an internal ribosome entry sequence (IRES). […] All 12 clones analyzed were inducible and had little or no basal activity. […]
HT20-6 cells, which contain the pLH-ZHWT×12-IL2-SEAP reporter gene, ZFHD1-3FKBP DNA binding domain and 1FRB-p65(361-550) activation domain stably integrated, were generated by first infecting HT1080L cells with SMTN-ZFHD1-3FKBP-packaged retrovirus and selecting in medium containing […] G418. […] Eight positive clones were analyzed by addition of rapamycin. […]

Data set [2] concerns hGH reporter gene in transplanted transfected HT1080 cells. Description: Rapamycin-dependent production of hGH in mice bearing transfected HT1080 cells. It is filed as in vivo. The protocol:
To prepare transiently transfected HT1080 cells for injection into mice (See below), cells in 100 mm dishes (2×10^6 cells/dish) were transfected by calcium phosphate precipitation for 16 hours (Gatz, C., Kaiser, A. & Wendenburg, R. , 1991,Mol. Gen. Genet. 227, 229-237) with the following DNAs: […] of ZHWT×12-CMV-hGH, […] pCGNN-ZFHD1-3FKBP, […] pCGNN-1FRB-p65(361-550) and […] pUC118. Transfected cells were rinsed 2 times with phosphate buffered saline (PBS) and given fresh medium for 5 hours. To harvest for injection, cells were removed from the dish in Hepes Buffered Saline Solution containing 10 mM EDTA, washed with PBS/0.1% BSA/0.1% glucose and resuspended in the same at a concentration of 2×10^7 cells/ml.
In Vivo Methods: Animals, husbandry, and general procedures. Male nu/nu mice were obtained from Charles River Laboratories (Wilmington, Mass.) and allowed to acclimate for five days prior to experimentation. They were housed under sterile conditions, were allowed free access to sterile food and sterile water throughout the entire experiment, and were handled with sterile techniques throughout.
To transplant transiently transfected cells into mice, 2×10^6 transfected HT1080 cells, were suspended in […] PBS/0.1% BSA/0.1% glucose buffer, and administered into four intramuscular sites (approximately […] per site) on the haunches and flanks of the animals. Control mice received equivalent volume injections of buffer alone.
(§1) Rapamycin was formulated for in vivo administration by dissolution in equal parts of N,N-dimethylacetamide and a 9:1 (v:v) mixture of polyethylene glycol (average molecular weight of 400) and polyoxyethylene sorbitan monooleate. Concentrations of rapamycin, in the completed formulation, were sufficient to allow for in vivo administration of the appropriate dose in a 2.0 ml/kg injection volume. The accuracy of the dosing solutions was confirmed by HPLC analysis prior to intravenous administration into the tail veins. Some control mice, bearing no transfected HT1080 cells, received 10.0 mg/kg rapamycin. In addition, other control mice, bearing transfected cells, received only the rapamycin vehicle.
Blood was collected by either anesthetizing or sacrificing mice via CO2 inhalation. Anesthetized mice were used to collect […] of blood by cardiac puncture. The mice were revived and allowed to recover for subsequent blood collections. Sacrificed mice were immediately exsanguinated. Blood samples were allowed to clot for 24 hours, at 4° C., and sera were collected following centrifugation at 1000×g for 15 minutes. Serum hGH was measured by the Boehringer Mannheim non-isotopic sandwich ELISA (Cat No. 1 585 878). […] Absorbance was read at 405 nm with a 490 nm reference wavelength on a Molecular Devices microtiter plate reader. […]

Data set [3] is described as follows: Circulating half-life and concentration in mice. It counts as in vivo. The protocol:
as §1
To examine the kinetics of rapamycin control of hGH production, we treated animals with a single dose of rapamycin and then measured hGH levels at different times thereafter. […] The slower decay of serum hGH relative to rapamycin could reflect the presence of higher tissue concentrations of rapamycin in the vicinity of the implanted cells. Alternatively, persistence of hGH production from the engineered cells may be enhanced by the stability of hGH mRNA.
Therefore, to ascertain the ability of this system to elevate and maintain circulating hGH concentrations, we performed an experiment in which animals received multiple doses of rapamycin at 16-hour intervals. This interval corresponds to the time required for hGH levels to peak and then decline approximately half-way. According to this regimen, rapamycin concentration is predicted to approach a steady-state trough concentration of 1.7 μg/ml after two doses. hGH levels should also approach a steady state trough concentration following the second dose. […] In particular, it is apparent that protein production is rapidly terminated upon withdrawal of drug.

In data set [4] the test system is SEAP target gene in HT1080 cells. Description: Rapamycin-dependent transcriptional activation in transiently transfected cells (ZFHD1-3FKBP + 1FRB-p65 fusions, SEAP). It counts as cell-based, human. The protocol: SEAP production was not detected in cells in which one or both of the transcription factor fusion plasmids was omitted, nor was it detected in the absence of added rapamycin. When all components were present, however, SEAP secretion was detectable at rapamycin concentrations as low as 0.5 nM. […] Similar results have been obtained when the same transcription factors were used to drive rapamycin-dependent activation of an hGH reporter gene or a stably integrated version of the SEAP reporter gene made by infection with a retroviral vector. It is difficult to determine the fold activation in response to rapamycin since levels of SEAP secretion in the absence of drug are undetectable, but it is clear that in this system there is at least a 1000-fold enhancement over background levels in the absence of rapamycin.
HT1080 cells (ATCC CCL-121), derived from a human fibrosarcoma, were grown in MEM supplemented with non-essential amino acids and 10% Fetal Bovine Serum. Cells plated in 24-well dishes (Falcon, 6×10^4 cells/well) were transfected using Lipofectamine under conditions recommended by the manufacturer (GIBCO/BRL). A total of 300 ng of the following DNA was transfected into each well: 100 ng ZFHD×12-CMV-SEAP reporter gene, 2.5 ng pCGNN-ZFHD1-3FKBP or other DNA binding domain fusion, 5 ng pCGNN-1FRB-p65(361-550) or other activation domain fusion and 192.5 ng pUC118. In cases where the DNA binding domain or activation domain were omitted an equivalent amount of empty pCGNN expression vector was substituted. Following lipofection (for 5 hours) 500 μl medium containing the indicated amounts of rapamycin was added to each well. After 24 hours, medium was removed and assayed for SEAP activity as described (Spencer et al, Science 262:1019-24, 1993) using a Luminescence Spectrometer (Perkin Elmer) at 350 nm excitation and 450 nm emission. Background SEAP activity, measured from mock-transfected cells, was subtracted from each value.

Where [5] appears, read: five i.v. 10.0 mg/kg doses at 16-hour intervals.

As a reminder, the half-life is the time in which the quantity being followed falls by half. In the case of `CO[C@H]1C[C@@H]2CC[C@@H](C)[C@@](O)(O2)C(=O)C(=O)N2CCCC[C@H]2C(=O)O[C@H]([C@H](C)C[C@@H]2CC[C@@H](O)[C@H](OC)C2)CC(=O)[C@H](C)/C=C(\C)[C@@H](O)[C@@H](OC)C(=O)[C@H](C)C[C@H](C)/C=C/C=C/C=C/1C` [rapamycin], the SEAP production result in data set [1] is on record as “over 90,000 arbitrary fluorescence units”. In addition, in data set [2] (setting [5]), the “half-life of hGH decline after the final rapamycin dose” value came to 6.8 h and the “time hGH levels remained constant after the final dose” value was 16 h. For the same compound, in data set [2] (single i.v. dose 10.0 mg/kg), the “half-life of decay of serum hGH concentration from its peak” value was “approximately 11 hours” and the “time after treatment at which serum hGH remained detectable” value turned out to be 42 h. Besides, the “predicted steady-state trough concentration of rapamycin” value in data set [3] (after two doses, 10.0 mg/kg i.v. at 16-hour intervals) was 1.7 µg/mL. The half-life in data set [3] (nu/nu, mouse, in vivo, iv, in these animals (mice), i.v., read-out: half-life of rapamycin (converted)) is 4.6 h. The “enhancement of SEAP over background levels in the absence of rapamycin” value in data set [4] is recorded as at least 1000 fold. The “rapamycin concentration of peak SEAP secretion” value in data set [4] (24 hours) is listed as 5 nM. Besides, the “lowest rapamycin concentration at which SEAP secretion was detectable” value in data set [4] (all components present, 24 hours) stood at 0.5 nM.
For the compound “hGH: human growth hormone, reporter gene product secreted by engineered cells”, the “half-life of hGH clearance from the circulation” value in data set [3] (in these animals (mice)) is reported as “less than four”.
